Experimental data reported in ChEMBL document CHEMBL4028808, “Design and synthesis of selective CDK8/19 dual inhibitors: Discovery of 4,5-dihydrothieno[3',4':3,4]benzo[1,2-d]isothiazole derivatives” (Bioorg Med Chem, 2017).
≈ marks a conversion by molar mass, not a printed value. Calls of active or inactive are those of the source. The calls are words filed in the database; no cut-off is given here.

What was measured:
[1] = molecular target: Hepatocyte growth factor receptor (Homo sapiens) (UniProt P08581); test: Inhibition of cMET (unknown origin) at <1 uM
Sequence of Hepatocyte growth factor receptor (Homo sapiens) (P08581 whole entry): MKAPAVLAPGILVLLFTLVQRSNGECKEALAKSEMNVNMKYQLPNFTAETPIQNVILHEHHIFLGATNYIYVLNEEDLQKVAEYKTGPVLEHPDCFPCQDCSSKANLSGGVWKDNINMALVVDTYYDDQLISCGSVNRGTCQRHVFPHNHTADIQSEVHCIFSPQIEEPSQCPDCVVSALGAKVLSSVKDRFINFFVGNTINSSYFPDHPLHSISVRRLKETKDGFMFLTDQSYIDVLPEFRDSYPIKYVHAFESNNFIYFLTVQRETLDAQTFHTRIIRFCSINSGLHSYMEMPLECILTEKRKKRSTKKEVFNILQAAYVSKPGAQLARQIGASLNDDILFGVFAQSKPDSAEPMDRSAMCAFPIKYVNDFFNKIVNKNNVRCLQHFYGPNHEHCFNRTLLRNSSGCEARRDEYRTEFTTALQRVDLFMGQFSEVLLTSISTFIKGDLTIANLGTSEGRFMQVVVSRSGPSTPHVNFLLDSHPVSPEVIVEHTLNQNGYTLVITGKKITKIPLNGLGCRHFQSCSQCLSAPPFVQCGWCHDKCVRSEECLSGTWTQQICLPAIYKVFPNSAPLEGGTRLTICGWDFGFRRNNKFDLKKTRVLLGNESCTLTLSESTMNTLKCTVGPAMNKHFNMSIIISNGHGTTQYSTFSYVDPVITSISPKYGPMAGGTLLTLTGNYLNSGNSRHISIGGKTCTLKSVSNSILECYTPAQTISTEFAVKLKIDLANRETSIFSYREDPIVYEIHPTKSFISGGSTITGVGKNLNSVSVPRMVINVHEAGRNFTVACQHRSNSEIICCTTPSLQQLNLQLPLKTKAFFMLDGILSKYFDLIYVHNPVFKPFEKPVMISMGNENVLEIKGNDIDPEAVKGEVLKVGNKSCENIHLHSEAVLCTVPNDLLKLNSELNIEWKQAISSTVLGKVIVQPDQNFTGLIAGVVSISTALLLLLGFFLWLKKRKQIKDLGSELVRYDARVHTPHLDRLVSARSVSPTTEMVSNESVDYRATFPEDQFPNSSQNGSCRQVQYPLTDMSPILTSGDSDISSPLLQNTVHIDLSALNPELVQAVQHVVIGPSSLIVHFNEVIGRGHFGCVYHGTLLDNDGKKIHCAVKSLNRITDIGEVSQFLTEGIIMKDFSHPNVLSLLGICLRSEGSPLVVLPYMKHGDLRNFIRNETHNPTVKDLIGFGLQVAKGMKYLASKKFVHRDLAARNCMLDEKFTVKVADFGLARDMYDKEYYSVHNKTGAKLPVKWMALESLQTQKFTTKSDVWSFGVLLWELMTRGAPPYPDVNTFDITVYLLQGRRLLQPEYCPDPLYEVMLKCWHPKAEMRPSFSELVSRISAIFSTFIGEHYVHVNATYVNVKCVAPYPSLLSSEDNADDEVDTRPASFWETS

Homo sapiens = species on record: Homo sapiens; test: Inhibition of PKA (unknown origin) at 1 uM using PKA peptide as substrate preincubated for 5 mins followed by substrate addition measured after 10 mins in presence of [gamma33P]ATP by scintillation counter method relative to control
[2] = Half life in ICR mouse plasma at 0.1 mg/kg, iv or 1 mg/kg, po administered as cassette dose by LC-MS/MS analysis; assay type: ADME, organism-based
[3] = AUC (0 to 24 hrs) in ICR mouse plasma at 1 mg/kg, po administered as cassette dose by LC-MS/MS analysis; assay type: ADME, organism-based; design: dose 1 mg/kg, time < 24 hr, route oral
[4] = molecular target: Homeodomain-interacting protein kinase 2 (Homo sapiens) (UniProt Q9H2X6); test: Binding affinity to partial length wild-type human HIPK2 (M153 to S564 residues) expressed in mammalian expression system assessed as unbound drug level at 300 nM by KINOMEscan assay
Sequence of Homeodomain-interacting protein kinase 2 (Homo sapiens) (Q9H2X6 whole entry, looked up, the tested form may be a part): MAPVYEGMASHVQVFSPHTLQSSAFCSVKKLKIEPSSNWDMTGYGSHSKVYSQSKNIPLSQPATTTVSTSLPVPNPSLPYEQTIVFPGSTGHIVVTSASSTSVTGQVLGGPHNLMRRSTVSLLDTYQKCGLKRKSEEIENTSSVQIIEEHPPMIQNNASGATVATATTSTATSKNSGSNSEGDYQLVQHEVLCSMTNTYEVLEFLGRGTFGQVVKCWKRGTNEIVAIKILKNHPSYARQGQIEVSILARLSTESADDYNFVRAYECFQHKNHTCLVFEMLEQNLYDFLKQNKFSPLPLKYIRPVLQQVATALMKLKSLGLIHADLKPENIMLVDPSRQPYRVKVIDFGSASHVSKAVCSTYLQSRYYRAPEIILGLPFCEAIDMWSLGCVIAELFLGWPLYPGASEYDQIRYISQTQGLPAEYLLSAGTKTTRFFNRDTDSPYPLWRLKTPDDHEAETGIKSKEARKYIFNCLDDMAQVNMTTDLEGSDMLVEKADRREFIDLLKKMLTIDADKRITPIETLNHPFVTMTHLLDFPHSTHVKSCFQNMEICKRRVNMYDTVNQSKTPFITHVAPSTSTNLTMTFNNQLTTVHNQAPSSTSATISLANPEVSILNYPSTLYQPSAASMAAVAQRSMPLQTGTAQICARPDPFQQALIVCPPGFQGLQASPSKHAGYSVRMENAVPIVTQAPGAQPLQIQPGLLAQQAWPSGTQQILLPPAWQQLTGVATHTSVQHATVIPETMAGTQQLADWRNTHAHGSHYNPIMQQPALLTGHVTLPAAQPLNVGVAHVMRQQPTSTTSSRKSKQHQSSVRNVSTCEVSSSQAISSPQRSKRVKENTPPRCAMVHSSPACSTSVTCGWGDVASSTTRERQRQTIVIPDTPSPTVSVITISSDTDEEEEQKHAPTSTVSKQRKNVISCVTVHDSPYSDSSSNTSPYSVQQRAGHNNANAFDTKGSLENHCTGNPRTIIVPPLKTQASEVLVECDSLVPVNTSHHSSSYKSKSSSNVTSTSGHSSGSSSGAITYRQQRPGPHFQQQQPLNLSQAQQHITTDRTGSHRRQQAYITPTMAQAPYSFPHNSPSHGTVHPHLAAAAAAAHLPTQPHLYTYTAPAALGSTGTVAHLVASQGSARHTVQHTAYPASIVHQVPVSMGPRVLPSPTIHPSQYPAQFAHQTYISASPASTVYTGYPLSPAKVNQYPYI

[5] = molecular target: Dual specificity tyrosine-phosphorylation-regulated kinase 1A (Homo sapiens) (UniProt Q13627); test: Binding affinity to partial length wild-type human DYRK1A (H129 to S509 residues) expressed in mammalian expression system assessed as unbound drug level at 300 nM by KINOMEscan assay
RPMI-8226 [6] = test: Antitumor activity against human RPMI8226 cells xenografted in C.B17/Icr scid/scid Jcl mouse assessed as tumor growth suppression at 1.25 mg/kg, po bid administered for 14 days measured post last dose relative to control; assay type: functional
[7] = Mean residence time in ICR mouse plasma at 1 mg/kg, po administered as cassette dose by LC-MS/MS analysis; assay type: ADME, organism-based
[8] = Intrinsic clearance in human liver microsomes at 1 umol/l after 15 to 30 mins in presence of NADPH by LC-MS/MS analysis; assay type: ADME, microsome; details: read-out: CLH
[9] = molecular target: Cyclin-dependent kinase 19 (Homo sapiens, UniProt Q9BWU1); test: Binding affinity to partial length wild-type human CDK19 (M1 to N360 residues) expressed in bacterial expression system by KINOMEscan assay
Mus musculus = test: AUC (0 to 24 hrs) in ICR mouse plasma at 0.1 mg/kg, iv administered as cassette dose by LC-MS/MS analysis; assay type: ADME, organism-based; design: dose 0.1 mg/kg, time < 24 hr, route intravenous; details: in vivo
[10] = molecular target: Ephrin type-A receptor 3 (Homo sapiens) (UniProt P29320); test: Binding affinity to partial length wild-type human EPHA3 (D604 to K889 residues) expressed in bacterial expression system assessed as unbound drug level at 300 nM by KINOMEscan assay
Ephrin type-A receptor 3 = Ephrin type-A receptor 3 (Homo sapiens, UniProt P29320); test: Binding affinity to partial length wild-type human EPHA3 (D604 to K889 residues) expressed in bacterial expression system by kinome scan assay
[11] = molecular target: High affinity nerve growth factor receptor (Homo sapiens) (UniProt P04629); test: Inhibition of TrkA (unknown origin) at <1 uM
Sequence of High affinity nerve growth factor receptor (Homo sapiens) (P04629 33-796 limits assumed): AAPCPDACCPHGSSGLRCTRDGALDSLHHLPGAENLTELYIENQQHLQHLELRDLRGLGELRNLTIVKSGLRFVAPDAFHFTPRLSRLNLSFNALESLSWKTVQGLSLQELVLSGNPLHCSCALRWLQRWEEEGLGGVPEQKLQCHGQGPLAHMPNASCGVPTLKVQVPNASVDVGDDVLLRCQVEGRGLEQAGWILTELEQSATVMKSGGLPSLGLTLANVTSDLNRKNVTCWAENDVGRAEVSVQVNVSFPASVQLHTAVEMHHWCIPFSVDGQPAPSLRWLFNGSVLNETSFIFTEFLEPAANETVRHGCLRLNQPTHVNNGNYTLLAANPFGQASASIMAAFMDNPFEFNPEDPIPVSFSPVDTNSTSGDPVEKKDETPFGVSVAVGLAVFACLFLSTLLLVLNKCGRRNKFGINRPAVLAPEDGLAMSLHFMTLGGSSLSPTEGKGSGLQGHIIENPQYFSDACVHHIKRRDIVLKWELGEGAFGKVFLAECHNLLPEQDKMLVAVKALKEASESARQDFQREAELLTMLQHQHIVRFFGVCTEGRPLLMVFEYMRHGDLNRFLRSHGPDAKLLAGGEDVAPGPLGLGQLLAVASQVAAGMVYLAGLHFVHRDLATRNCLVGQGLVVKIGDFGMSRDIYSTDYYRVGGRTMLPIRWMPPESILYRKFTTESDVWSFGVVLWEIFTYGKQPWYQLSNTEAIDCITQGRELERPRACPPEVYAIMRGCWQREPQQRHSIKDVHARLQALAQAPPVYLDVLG

Calu-1 = test: Growth inhibition of human Calu1 cells after 196 hrs by CellTiter-Glo luminescence assay; assay type: functional; details: Calu-1, 196 h
[12] = molecular target: Casein kinase I isoform delta (Homo sapiens) (UniProt P48730); test: Inhibition of CK1delta (unknown origin) at 1 uM using CK1tide as substrate preincubated for 5 mins followed by substrate addition measured after 20 mins in presence of [gamma33P]ATP by scintillation counter method relative to control
[13] = molecular target: Cyclin-C/Cyclin-dependent kinase 19 (Homo sapiens) (UniProt Q9BWU1+P24863); details: 1 uM
Description: Inhibition of kinase tracer-236 binding to GST-tagged CDK19/CyclinC (unknown origin) at 1 uM after 60 mins by TR-FRET assay relative to control

[14] = molecular target: RAC-alpha serine/threonine-protein kinase (Homo sapiens) (UniProt P31749); test: Inhibition of Akt1 (unknown origin) at <1 uM using AKT1 substrate pretreated for 5 mins followed by substrate addition after 20 mins in presence of [gamma33P]ATP by scintillation counter method
[15] = molecular target: Protein kinase C theta type (Homo sapiens) (UniProt Q04759); test: Inhibition of PKCtheta (unknown origin) at 1 uM using MBP as substrate preincubated for 5 mins followed by substrate addition measured after 60 mins in presence of [gamma33P]ATP by scintillation counter method relative to control
[16] = molecular target: Mitogen-activated protein kinase 3 (Homo sapiens) (UniProt P27361); test: Inhibition of ERK1 (unknown origin) at <1 uM using MBP as substrate preincubated for 5 mins followed by substrate addition measured after 60 mins in presence of [gamma33P]ATP by scintillation counter method
[17] = Aqueous solubility of the compound in DMSO at pH 6.8 by HPLC method; assay type: physicochemical
[18] = molecular target: Insulin receptor (Homo sapiens) (UniProt P06213); test: Inhibition of IRK (unknown origin) at <1 uM using biotinylated poly[Glu:Tyr] (4:1) as substrate pretreated for 5 mins followed by substrate addition measured after 60 mins by Alphascreen assay
[19] = molecular target: Ephrin type-A receptor 5 (Homo sapiens) (UniProt P54756); test: Inhibition of EphA5 (unknown origin) at <1 uM using biotinylated poly[Glu:Tyr] (4:1) as substrate pretreated for 5 mins followed by substrate addition measured after 10 mins by Alphascreen assay
Sequence of Ephrin type-A receptor 5 (Homo sapiens) (P54756 whole entry): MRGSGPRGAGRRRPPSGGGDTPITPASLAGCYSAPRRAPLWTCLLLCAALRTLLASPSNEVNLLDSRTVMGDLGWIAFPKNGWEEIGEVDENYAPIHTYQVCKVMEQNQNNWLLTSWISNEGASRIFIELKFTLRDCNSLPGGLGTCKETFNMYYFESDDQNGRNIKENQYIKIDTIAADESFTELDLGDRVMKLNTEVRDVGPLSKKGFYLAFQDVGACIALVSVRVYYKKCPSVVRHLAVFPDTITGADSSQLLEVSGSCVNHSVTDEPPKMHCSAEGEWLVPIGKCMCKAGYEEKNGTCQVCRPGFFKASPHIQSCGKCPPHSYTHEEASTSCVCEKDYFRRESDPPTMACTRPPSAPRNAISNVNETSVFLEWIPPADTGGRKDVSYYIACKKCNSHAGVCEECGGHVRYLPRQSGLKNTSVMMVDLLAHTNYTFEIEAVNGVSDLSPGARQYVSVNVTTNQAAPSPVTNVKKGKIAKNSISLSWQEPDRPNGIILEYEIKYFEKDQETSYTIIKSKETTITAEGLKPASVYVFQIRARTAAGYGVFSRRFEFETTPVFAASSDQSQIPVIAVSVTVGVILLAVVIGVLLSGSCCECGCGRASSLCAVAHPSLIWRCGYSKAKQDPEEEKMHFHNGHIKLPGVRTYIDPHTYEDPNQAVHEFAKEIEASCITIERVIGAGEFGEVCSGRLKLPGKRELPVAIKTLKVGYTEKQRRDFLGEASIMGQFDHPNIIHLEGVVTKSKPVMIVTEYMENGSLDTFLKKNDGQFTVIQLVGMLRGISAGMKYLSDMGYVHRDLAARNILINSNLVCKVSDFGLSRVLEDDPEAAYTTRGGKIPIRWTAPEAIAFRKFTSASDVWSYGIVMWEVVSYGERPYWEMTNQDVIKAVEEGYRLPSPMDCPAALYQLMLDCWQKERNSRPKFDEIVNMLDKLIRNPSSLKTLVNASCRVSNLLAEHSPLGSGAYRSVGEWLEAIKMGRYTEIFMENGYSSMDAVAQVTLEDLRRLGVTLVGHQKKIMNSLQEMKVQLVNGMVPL

[20] = Oral bioavailability in ICR mouse plasma at 1 mg/kg administered as cassette dose by LC-MS/MS analysis; assay type: ADME, organism-based
[21] = molecular target: CDC7/DBF4 (Cell division cycle 7-related protein kinase/Activator of S phase kinase) (Homo sapiens) (UniProt Q9UBU7+O00311); test: Inhibition of CDC7/Dbf4 (unknown origin) at 1 uM using His-tagged MCM2 as substrate preincubated for 5 mins followed by substrate addition measured after 60 mins in presence of [gamma33P]ATP by scintillation counter method relative to control; assay type: protein-complex assay
[22] = molecular target: Cyclin-dependent kinase 8 (Homo sapiens, UniProt P49336); test: Inhibition of CDK8 in human SW480 cells assessed as decrease in STAT1 phosphorylation at Ser727 after 2 hrs by Western blot method
Sequence of Cyclin-dependent kinase 8 (P49336 whole entry): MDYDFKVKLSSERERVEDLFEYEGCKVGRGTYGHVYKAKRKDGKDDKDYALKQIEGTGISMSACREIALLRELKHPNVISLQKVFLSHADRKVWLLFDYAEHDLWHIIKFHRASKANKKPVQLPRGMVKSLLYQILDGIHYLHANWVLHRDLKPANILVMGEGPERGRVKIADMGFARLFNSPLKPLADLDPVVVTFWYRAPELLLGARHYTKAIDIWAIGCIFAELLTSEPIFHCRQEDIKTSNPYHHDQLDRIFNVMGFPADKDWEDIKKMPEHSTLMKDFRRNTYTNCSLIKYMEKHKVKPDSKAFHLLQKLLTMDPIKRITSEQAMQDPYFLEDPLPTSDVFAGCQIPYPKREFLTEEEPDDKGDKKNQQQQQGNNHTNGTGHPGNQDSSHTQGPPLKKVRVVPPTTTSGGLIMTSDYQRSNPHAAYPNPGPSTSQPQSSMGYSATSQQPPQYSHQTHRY

RPMI-8226 [23] = test: Antitumor activity against human RPMI8226 cells xenografted in C.B17/Icr scid/scid Jcl mouse assessed as tumor growth suppression at 2.5 mg/kg, po qd administered for 14 days measured post last dose relative to control; assay type: functional
[24] = molecular target: Vascular endothelial growth factor receptor 2 (Homo sapiens) (UniProt P35968); test: Inhibition of VEGFR2 (unknown origin) at <1 uM using biotinylated poly[Glu:Tyr] (4:1) as substrate pretreated for 5 mins followed by substrate addition measured after 10 mins by Alphascreen assay
[25] = molecular target: Rho-associated protein kinase 1 (Homo sapiens) (UniProt Q13464); test: Inhibition of ROCK1 (unknown origin) at 1 uM using long S6 peptide as substrate pretreated for 5 mins followed by substrate addition measured after 10 mins in presence of [gamma33P]ATP by scintillation counting method relative to control
[26] = molecular target: Focal adhesion kinase 1 (Homo sapiens) (UniProt Q05397); test: Inhibition of FAK (unknown origin) at <1 uM using biotinylated poly[Glu:Tyr] (4:1) as substrate pretreated for 5 mins followed by substrate addition measured after 20 mins by Alphascreen assay

COCCNC(=O)c1ccc(Oc2sc(C(N)=O)c3c2-c2sncc2CC3)cn1
inhibition [1]: inactive
inhibition (Homo sapiens): 1%
half-life [2]: 2.1 h
AUC(0-t) at 24 h [3]: 891 ng·h/mL
Fu [4]: 0.48%
Fu [5]: 0.47%
T/C (RPMI-8226 [6]): 27%
MRT [7]: 2.06 h
microsomal CLint at 1 µM [8]: 21 µL/min/mg
Kd [9]: 25 nM
AUC (Mus musculus): 90.4 ng·h/mL
Fu [10]: 0.43%
Kd (Ephrin type-A receptor 3): > 3000 nM
inhibition [11]: inactive
GI50 (Calu-1): 0.43 nM
inhibition [12]: 28%
inhibition [13]: 100%
inhibition [14]: inactive
inhibition [15]: 2%
inhibition [16]: inactive
solubility [17]: 47 µg/mL (≈ 109 µM)
inhibition [18]: inactive
inhibition [19]: inactive
bioavailability [20]: 98.5%
inhibition [21]: 33%
EC50 [22]: 1.3 nM
T/C (RPMI-8226 [23]): -1%
inhibition [24]: inactive
inhibition [25]: 7%
inhibition [26]: inactive
